In patent EP0877031A1, “TGF-Beta1 derived peptides mimicking the activity of transforming growth factor-Beta1” (INSTITUUT VOOR DIERHOUDERIJ EN DIERGEZONDHEID (ID-DLO), priority 1997, dated 1998):

Experiments:
[1] = tested on: Mink lung epithelial cells (Mv 1 Lu); assay: Mv 1 Lu growth inhibition assay, preincubation with peptides followed by a suboptimal quantity of TGF-β1; format: cell-based; settings: 4 h preincubation with peptide, then suboptimal 3.3 x 10^-3 µM TGF-β1, 5 days of incubation
Method: (§1) An assay for TGF-β1 biological activity, bases on Mink lung epithelial cells (Mv 1 Lu), was used for analysis of the biological activity of peptides derived from the human TGF-β1 primary sequence. This assay is based on growth inhibition of Mv 1 Lu cells in presence of TGF-β1. Inhihition of Mv 1 Lu growth is quantified by acid phosphatase activity as a marker for cell growth.
(§2) Mink lung epithelial cells (Mv 1 Lu) were plated in 96-well tissue culture plates (Costar, Cambridge, MA) at 100 cells/well in 100 µl Eagle's MEM supplemented with 20IE/ml penicillin, 1 mg/ml streptomycin, 0.4 mM L-glutamine, 10 mM HEPES and 10% FCS (HyClone, Logan, UT). Plates were incubated at 37°C and 5% CO2 in a humidified incubator for 1.5 h to allow cell attachment. After cell attachment peptides were added in a volume of 50 µl in Eagle's MEM supplemented with 20IE/ml penicillin, 1 mg/ml streptomycin, 0.4 mM L-glutamine, 10 mM HEPES and 10% FCS and titrated with eight threefold dilutions of peptide. The cells were subsequently incubated for 5 days at 37°C and 5% CO2 in a humidified incubator. After incubation cell growth was monitored using acid phosphatase activity as a marker: The plates were washed twice with 200 µl PBS per well and 100 µl of substrate solution (0.1 M sodium acetate, 0,1% Triton X-100, 3.7 mg/ml p-nitrophenyl phosphate, pH 5.5) were added to each well. The plates were then incubated for 1.5 h at 37°C, after which 25 µl of 0.4 M NaOH were added to each well. Acid phosphatase activity was detected by measuring the OD of the substrate solution using an microplate reader at 405 nm.
In this example Mv 1 Lu cells were preincubated with TGF-β1 derived peptides which were titrated in eight threefold dilutions, starting with a peptide quantity of 10-100 µg per well. After 4 h of preincubation a suboptimal quantity of 3.3 x 10^-3 µM TGF-β1. The TGF-β1 (R&D systems, M1) Porcine TGF-β1 is 100% homologue to humam TGF-β1 (Roberts et al. in Handbook of Experimental Pharmacology, Editors Sporn, M.B.; Robers A.B.; Springer Verlag Heidelberg (1990), 95, 419) was added. After 5 days of incubation the wells were tested for acid phosphatase activity.

[2] = tested on: Mink lung epithelial cells (Mv 1 Lu); assay: Mv 1 Lu growth inhibition assay for agonistic TGF activity (peptides alone, acid phosphatase readout); format: cell-based; settings: peptide alone, 5 days of incubation, acid phosphatase activity as marker for cell growth
Method: as §1, §2
In this example, all peptides comprising 12 amino acids prepared as described under the head "Peptide synthesis", were tested in the Mv 1 Lu growth inhibition assay. In this assay peptides were titrated in eight threefold dilutions, starting with a peptide quantity of 10-100 µg per well. After 5 days of incubation the wells were tested for acid phosphatase activity.

Row | Sequence | enhanced inhibition of the growth of mink lung epithelial cells when combined with TGF-β1 (synergistic effect) [1] | growth inhibition of mink lung epithelial cells (TGF agonist activity) [2]
1 | CCVRQLYIDFRK | enhanced inhibition of the growth of the mink lung epithelial cells | inhibited the growth of mink lung epithelial cells in a similar way as TGF-β1 does
2 | CFSSTEKNCCVR | – | inhibited the growth of mink lung epithelial cells in a similar way as TGF-β1 does
3 | EKNCCVRQLYID | – | inhibited the growth of mink lung epithelial cells in a similar way as TGF-β1 does
4 | FSSTEKNCCVRQ | – | inhibited the growth of mink lung epithelial cells in a similar way as TGF-β1 does
5 | HNPGASAAPCCV | enhanced inhibition of the growth of the mink lung epithelial cells | –
6 | KNCCVRQLYIDF | enhanced inhibition of the growth of the mink lung epithelial cells | –
7 | LSNMIVRSCKCS | enhanced inhibition of the growth of the mink lung epithelial cells | inhibited the growth of mink lung epithelial cells in a similar way as TGF-β1 does
8 | NCCVRQLYIDFR | enhanced inhibition of the growth of the mink lung epithelial cells | inhibited the growth of mink lung epithelial cells in a similar way as TGF-β1 does
9 | QHNPGASAAPCC | enhanced inhibition of the growth of the mink lung epithelial cells | –
